Some test systems named below: COLO 205 colon; EKVX NSCLC; LOX IMVI melanoma; SF-295 CNS; SNB-19 CNS; SR leukemia; SW-620 colon; OVCAR-5 ovarian; U251 CNS; UO-31 renal.
Common to all, as to test: NCI tumour cell line growth inhibition, 48 h

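48-hour exposure; five concentrations; linearly interpolated endpoints. GI50: concentration for 50% inhibition of growth. TGI denotes the concentration required for complete inhibition of growth.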 A value given as a limit tells only on which side of the number the result lay.

As to `CCN(CC)CCNc1ccc([N+](=O)[O-])c2sc3cc(Cl)ccc3c(=O)c12`, the GI50 was 3.93 µM with COLO 205 colon; 10.7 µM with EKVX NSCLC; 2.8 µM with LOX IMVI melanoma; 6.27 µM in the assay with SF-295 CNS; 2.77 µM with SNB-19 CNS; 4.7 µM in the assay with SR leukemia. Also, in the assay with SW-620 colon, the GI50 is 2.33 µM. Moreover, the TGI in the assay on COLO 205 colon, with EKVX NSCLC, in the assay with LOX IMVI melanoma, with SF-295 CNS, in the assay on SNB-19 CNS and in the assay on SR leukemia was over 100 µM throughout. Besides, in the assay on SW-620 colon, the TGI is 27.8 µM.

In the case of `COc1cc2c(cc1OCCCOc1ccc(-c3cc4ccccc4c4ccccc34)cc1)N=C[C@@H]1CCCN1C2=O`, the GI50 in the assay with COLO 205 colon was 1.19 µM; in the assay with EKVX NSCLC, 1.1 µM; in the assay with LOX IMVI melanoma, 1.02 µM; in the assay on OVCAR-5 ovarian it was 0.487 µM; in the assay with SNB-19 CNS, 1.16 µM; in the assay on SR leukemia it was 0.222 µM. For the same molecule, the GI50 is 0.513 µM in the assay with SW-620 colon, 0.91 µM with U251 CNS and 0.169 µM with UO-31 renal. In addition, the TGI came out at 2.44 µM in the assay with COLO 205 colon; 2.3 µM in the assay with EKVX NSCLC; 2.19 µM with LOX IMVI melanoma; 0.995 µM in the assay on OVCAR-5 ovarian; 2.37 µM with SNB-19 CNS; 0.717 µM in the assay on SR leukemia. For the same molecule, the values for the TGI with SW-620 colon, in the assay on U251 CNS and in the assay with UO-31 renal were 1.86 µM, 2.11 µM and 0.593 µM, respectively.

For `Cc1cc(Nc2ccc(Cl)cc2)nc(NCCCNc2ccnc3cc(Cl)ccc23)n1`, the GI50 in the assay on COLO 205 colon was 1.66 µM; in the assay with LOX IMVI melanoma, 1.64 µM; in the assay on OVCAR-5 ovarian it was 1.66 µM; with SF-295 CNS it was 1.64 µM; with U251 CNS, 1.5 µM; in the assay with UO-31 renal, 1.49 µM. Moreover, the TGI with COLO 205 colon is 3.31 µM; in the assay on LOX IMVI melanoma it was 3.18 µM; in the assay with OVCAR-5 ovarian, 3.09 µM; in the assay with SF-295 CNS it was 3.04 µM; in the assay on U251 CNS it was 2.88 µM; with UO-31 renal, 2.96 µM.

Regarding `COC(=O)C(NC(=O)c1ccccc1)C(c1c(O)cc(O)cc1O)P(=O)(OC)OC` (centres undefined), the TGI with COLO 205 colon, with EKVX NSCLC, in the assay with LOX IMVI melanoma, in the assay on OVCAR-5 ovarian, in the assay with SF-295 CNS and with SNB-19 CNS was over 100 µM throughout. Besides, the TGI with SR leukemia, with SW-620 colon, in the assay on U251 CNS and in the assay with UO-31 renal was over 100 µM throughout.

As to `CCOC(=O)c1csc(NC(=O)C(C)N2CCOCC2)n1` (centres undefined), the TGI with COLO 205 colon, with EKVX NSCLC, in the assay with LOX IMVI melanoma, in the assay on OVCAR-5 ovarian, in the assay with SF-295 CNS and with SNB-19 CNS was over 100 µM throughout. The TGI in the assay on SR leukemia, in the assay on SW-620 colon, in the assay on U251 CNS and in the assay with UO-31 renal was over 100 µM in each case.

As to `NC(Cc1ccccc1CP(=O)(O)O)C(=O)O` (centres undefined), the TGI with COLO 205 colon, with EKVX NSCLC, in the assay on LOX IMVI melanoma, in the assay with OVCAR-5 ovarian, with SF-295 CNS and with SNB-19 CNS was over 100 µM each time. The TGI with SR leukemia, with SW-620 colon, in the assay with U251 CNS and in the assay with UO-31 renal was over 100 µM throughout.

On to `c1cncc([O][Ge]([O]c2cccnc2)([O]c2cccnc2)[O]c2cccnc2)c1`, for which the GI50 with COLO 205 colon was over 100 µM; in the assay on EKVX NSCLC, over 100 µM; with LOX IMVI melanoma, 47.1 µM; in the assay on OVCAR-5 ovarian, over 100 µM; with SF-295 CNS, over 100 µM; with SNB-19 CNS, over 100 µM. Further, the GI50 in the assay with SR leukemia, in the assay with SW-620 colon, in the assay on U251 CNS and in the assay on UO-31 renal was over 100 µM throughout. For the same molecule, the TGI in the assay with COLO 205 colon, with EKVX NSCLC, in the assay on LOX IMVI melanoma, in the assay with OVCAR-5 ovarian, in the assay on SF-295 CNS and in the assay with SNB-19 CNS was over 100 µM each time. Besides, the TGI with SR leukemia, in the assay with SW-620 colon, in the assay on U251 CNS and with UO-31 renal was over 100 µM throughout.

The record behind these values is PubChem BioAssay (NCI).
